Values joined by “and” are separate entries in the source; they are usually repeats but may differ in a detail not shown here. Identical values can stand only once. Like-named read-outs stand apart in the source and are kept apart here.
What was measured:
CDK12–cyclin K and DDB1 = molecular target: T1, CDK12–cyclin K and DDB1 (Homo sapiens, UniProt Q16531+Q9NYV4, K965R); test: TR-FRET ternary complex formation assay (compound titration); type: binding; conditions: for TR-FRET signal at compound concentration: replicate titrations
T1 construct: His6–CDK12 (a.a. 713–1,052); full-length or beta-propeller B domain deletion (ΔBPB: a.a. 396–705 deleted) constructs of His6–DDB1ΔBPB, StrepII–Avi–DDB1, or His6–Spy–DDB1; made in house; host or cells: Trichoplusia ni High Five insect cells (baculovirus)
Outline: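 Signal was the ratio of 520 nm to 490 nm fluorescence, measured after a 70 μs delay that reduced background.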

[1] = test system: cyclin K–eGFP degradation reporter; test: Cyclin K reporter stability analysis (dual-color cyclin K–eGFP reporter); type: cell-based, human; conditions: Supplementary Table 2; HEK293T cycK-eGFP reporter, 5 h; read-out: Cellular assays DC50
Outline: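 Cells (HEK293T–Cas9, reporter-expressing) at 1 × 10^6 ml^−1; 5 h compound or DMSO; flow cytometry; gMFI eGFP ÷ mCherry on round mCherry-positive events; normalized to 3 DMSO controls.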

HEK293T cells = test: Drug sensitivity assay (CellTiter-Glo viability) with or without MLN4924 pretreatment; type: cell-based, human; conditions: Supplementary Table 2; for EC50: Homo sapiens, HEK-293T, HEK293T viability, 72 h, compound alone, read-out: Cellular assays EC50; for Toxicity rescue: MLN4924-mediated cytotoxicity rescue, 10 µM used where n.d.
Outline: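 HEK293T–Cas9, 0.15 × 10^6 ml^−1; pretreat DMSO vs 100 nM MLN4924; drugs dispensed after 2 h; 3 d exposure; CellTiter-Glo; viability vs DMSO control.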

[2] = Supplementary Table 2, read-out: TR-FRET EC50 TR-FRET
[3] = compound concentration 79.2001 nM
[4] = compound concentration 158.4 nM
[5] = compound concentration 309.6 nM
[6] = compound concentration 626.401 nM
[7] = compound concentration 1252.8 nM
[8] = compound concentration 9936.01 nM
[9] = compound concentration 20016 nM
[10] = sheet MOESM7, read-out: log TR-FRET EC50 (converted)
[11] = in vitro complex formation, 50 nM CDK12–cyclin K, 100 nM DDB1, text and figures, read-out: TR-FRET EC50

T1 sequence (Q9NYV4 713-1052 K965R): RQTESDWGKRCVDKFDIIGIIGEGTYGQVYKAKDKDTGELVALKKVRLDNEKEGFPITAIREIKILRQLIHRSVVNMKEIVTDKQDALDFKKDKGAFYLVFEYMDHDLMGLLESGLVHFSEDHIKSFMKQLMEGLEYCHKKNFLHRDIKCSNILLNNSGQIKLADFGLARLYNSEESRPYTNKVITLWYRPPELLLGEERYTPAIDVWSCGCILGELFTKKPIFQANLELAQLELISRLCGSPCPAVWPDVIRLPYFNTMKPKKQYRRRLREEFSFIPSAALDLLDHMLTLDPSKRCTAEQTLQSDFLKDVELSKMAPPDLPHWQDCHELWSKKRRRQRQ
T1 sequence (O75909 1-267 partner): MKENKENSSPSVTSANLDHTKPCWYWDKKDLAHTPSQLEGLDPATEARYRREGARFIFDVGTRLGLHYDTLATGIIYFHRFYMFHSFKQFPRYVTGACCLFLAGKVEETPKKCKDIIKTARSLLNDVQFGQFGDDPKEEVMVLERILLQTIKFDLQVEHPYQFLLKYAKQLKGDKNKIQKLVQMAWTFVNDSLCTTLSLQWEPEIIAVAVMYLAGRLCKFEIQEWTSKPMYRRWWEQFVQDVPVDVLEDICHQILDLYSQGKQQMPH
T1 sequence (Q16531 whole entry): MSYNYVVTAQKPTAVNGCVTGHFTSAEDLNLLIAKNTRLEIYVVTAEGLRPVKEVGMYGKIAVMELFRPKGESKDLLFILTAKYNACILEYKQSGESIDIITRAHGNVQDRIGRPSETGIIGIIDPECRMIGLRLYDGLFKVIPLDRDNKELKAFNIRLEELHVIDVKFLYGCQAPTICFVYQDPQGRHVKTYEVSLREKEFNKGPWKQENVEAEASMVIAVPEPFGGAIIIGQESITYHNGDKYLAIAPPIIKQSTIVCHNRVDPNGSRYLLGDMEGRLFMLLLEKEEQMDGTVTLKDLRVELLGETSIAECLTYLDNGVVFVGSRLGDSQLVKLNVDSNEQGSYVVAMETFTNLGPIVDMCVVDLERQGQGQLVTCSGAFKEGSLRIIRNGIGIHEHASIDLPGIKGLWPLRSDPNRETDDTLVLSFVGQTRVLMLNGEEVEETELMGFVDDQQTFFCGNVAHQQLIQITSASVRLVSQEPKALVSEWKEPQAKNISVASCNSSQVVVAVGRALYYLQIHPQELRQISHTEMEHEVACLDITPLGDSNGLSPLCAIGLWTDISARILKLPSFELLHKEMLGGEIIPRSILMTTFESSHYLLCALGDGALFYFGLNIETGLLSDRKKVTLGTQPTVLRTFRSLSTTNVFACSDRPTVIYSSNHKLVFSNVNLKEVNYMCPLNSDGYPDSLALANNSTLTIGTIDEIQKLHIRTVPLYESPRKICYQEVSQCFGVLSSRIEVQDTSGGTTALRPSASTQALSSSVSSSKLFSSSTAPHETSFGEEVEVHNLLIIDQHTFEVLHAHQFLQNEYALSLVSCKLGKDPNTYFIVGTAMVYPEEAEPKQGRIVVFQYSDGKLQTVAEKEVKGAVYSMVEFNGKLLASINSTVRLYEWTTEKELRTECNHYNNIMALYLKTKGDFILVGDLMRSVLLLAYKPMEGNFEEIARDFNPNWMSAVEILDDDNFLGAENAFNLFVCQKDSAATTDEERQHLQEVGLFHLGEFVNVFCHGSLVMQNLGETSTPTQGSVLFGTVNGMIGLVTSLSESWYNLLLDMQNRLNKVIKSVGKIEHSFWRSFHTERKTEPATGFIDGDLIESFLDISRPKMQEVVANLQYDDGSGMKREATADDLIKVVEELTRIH

| Structure (SMILES) | EC50 (CDK12–cyclin K and DDB1; [2]) [nM] | TR-FRET signal, individual replicate (CDK12–cyclin K and DDB1; compound concentration 4.68 nM) | TR-FRET signal, individual replicate (CDK12–cyclin K and DDB1; compound concentration 21.6 nM) | TR-FRET signal, individual replicate (CDK12–cyclin K and DDB1; compound concentration 36 nM) | TR-FRET signal, individual replicate (CDK12–cyclin K and DDB1; [3]) | TR-FRET signal, individual replicate (CDK12–cyclin K and DDB1; [4]) | TR-FRET signal, individual replicate (CDK12–cyclin K and DDB1; [5]) | TR-FRET signal, individual replicate (CDK12–cyclin K and DDB1; [6]) | TR-FRET signal, individual replicate (CDK12–cyclin K and DDB1; [7]) | TR-FRET signal, individual replicate (CDK12–cyclin K and DDB1; compound concentration 2448 nM) | TR-FRET signal, individual replicate (CDK12–cyclin K and DDB1; [8]) | TR-FRET signal, individual replicate (CDK12–cyclin K and DDB1; [9]) | EC50 (CDK12–cyclin K and DDB1; [10]) [nM] | DC50 [1] [nM] | TR-FRET signal at compound concentration (CDK12–cyclin K and DDB1; compound concentration 4.68 nM) | TR-FRET signal at compound concentration (CDK12–cyclin K and DDB1; compound concentration 21.6 nM) | TR-FRET signal at compound concentration (CDK12–cyclin K and DDB1; compound concentration 36 nM) | TR-FRET signal at compound concentration (CDK12–cyclin K and DDB1; [3]) | EC50 (HEK293T cells) [nM] | Toxicity rescue (HEK293T cells) [%] | further results |
| --- | --- | --- | --- | --- | --- | --- | --- | --- | --- | --- | --- | --- | --- | --- | --- | --- | --- | --- | --- | --- | --- |
| CC[C@H](CO)Nc1nc(NCCCc2ccco2)c2ncn(C(C)C)c2n1 [DS34] | 603 |  |  |  |  |  |  |  |  |  |  |  | 603 | > 10000 | 0.2091 and 0.2292 | 0.229 and 0.2555 | 0.2532 and 0.2765 | 0.311 and 0.3352 | > 10000 | 0 | TR-FRET signal at compound concentration (CDK12–cyclin K and DDB1; [4]): 0.3881 and 0.4084; TR-FRET signal at compound concentration (CDK12–cyclin K and DDB1; [5]): 0.5012 and 0.4942; TR-FRET signal at compound concentration (CDK12–cyclin K and DDB1; [6]): 0.6373 and 0.6895; TR-FRET signal at compound concentration (CDK12–cyclin K and DDB1; [7]): 0.7887 and 0.8649; TR-FRET signal at compound concentration (CDK12–cyclin K and DDB1; compound concentration 2448 nM): 0.8803 and 0.974; TR-FRET signal at compound concentration (CDK12–cyclin K and DDB1; [8]): 1.0289 and 1.143; TR-FRET signal at compound concentration (CDK12–cyclin K and DDB1; [9]): 1.011 and 1.0565; EC50 (CDK12–cyclin K and DDB1; [11]): 603 ± 62 nM |
| CC[C@H](CO)Nc1nc(NCCCc2ccnn2C)c2ncn(C(C)C)c2n1 [DS35] | 246 |  |  |  |  |  |  |  |  |  |  |  | 246 | > 10000 | 0.1529 and 0.1552 | 0.228 and 0.2468 | 0.3788 and 0.4108 | 0.6173 and 0.6444 | > 10000 | 0 | TR-FRET signal at compound concentration (CDK12–cyclin K and DDB1; [4]): 0.9157 and 0.9758; TR-FRET signal at compound concentration (CDK12–cyclin K and DDB1; [5]): 1.283 and 1.333; TR-FRET signal at compound concentration (CDK12–cyclin K and DDB1; [6]): 1.6242 and 1.675; TR-FRET signal at compound concentration (CDK12–cyclin K and DDB1; [7]): 1.8781 and 1.924; TR-FRET signal at compound concentration (CDK12–cyclin K and DDB1; compound concentration 2448 nM): 2.069 and 2.096; TR-FRET signal at compound concentration (CDK12–cyclin K and DDB1; [8]): 2.24 and 2.273; TR-FRET signal at compound concentration (CDK12–cyclin K and DDB1; [9]): 2.144 and 2.245; EC50 (CDK12–cyclin K and DDB1; [11]): 246 ± 10 nM |
| CCCCN(CCCC)CCCNc1nc(N[C@H](CC)CO)nc2c1ncn2C(C)C [DS36] |  | 0.2097 and 0.2275 | 0.2087 and 0.2297 | 0.2089 and 0.2353 | 0.2163 and 0.2368 | 0.2165 and 0.2428 | 0.2214 and 0.244 | 0.2373 and 0.2728 | 0.2487 and 0.3013 | 0.2879 and 0.3168 | 0.3262 and 0.358 | 0.3249 and 0.3501 |  | > 10000 |  |  |  |  | > 10000 | 0 |  |

Second part, led by results:

| EC50 (CDK12–cyclin K and DDB1; [2]) [nM] | TR-FRET signal, individual replicate (CDK12–cyclin K and DDB1; compound concentration 4.68 nM) | TR-FRET signal, individual replicate (CDK12–cyclin K and DDB1; compound concentration 21.6 nM) | TR-FRET signal, individual replicate (CDK12–cyclin K and DDB1; compound concentration 36 nM) | TR-FRET signal, individual replicate (CDK12–cyclin K and DDB1; [3]) | TR-FRET signal, individual replicate (CDK12–cyclin K and DDB1; [4]) | TR-FRET signal, individual replicate (CDK12–cyclin K and DDB1; [5]) | TR-FRET signal, individual replicate (CDK12–cyclin K and DDB1; [6]) | TR-FRET signal, individual replicate (CDK12–cyclin K and DDB1; [7]) | TR-FRET signal, individual replicate (CDK12–cyclin K and DDB1; compound concentration 2448 nM) | TR-FRET signal, individual replicate (CDK12–cyclin K and DDB1; [8]) | TR-FRET signal, individual replicate (CDK12–cyclin K and DDB1; [9]) | EC50 (CDK12–cyclin K and DDB1; [10]) [nM] | DC50 [1] [nM] | TR-FRET signal at compound concentration (CDK12–cyclin K and DDB1; compound concentration 4.68 nM) | TR-FRET signal at compound concentration (CDK12–cyclin K and DDB1; compound concentration 21.6 nM) | TR-FRET signal at compound concentration (CDK12–cyclin K and DDB1; compound concentration 36 nM) | TR-FRET signal at compound concentration (CDK12–cyclin K and DDB1; [3]) | Structure (SMILES) | EC50 (HEK293T cells) [nM] | Toxicity rescue (HEK293T cells) [%] | further results |
| --- | --- | --- | --- | --- | --- | --- | --- | --- | --- | --- | --- | --- | --- | --- | --- | --- | --- | --- | --- | --- | --- |
| 676 | 0.2147 and 0.2508 | 0.2391 and 0.2736 | 0.287 and 0.3299 | 0.3607 and 0.4271 | 0.4885 and 0.5801 | 0.7088 and 0.8235 | 1.016 and 1.206 | 1.37 and 1.584 | 1.698 and 1.9826 | 1.942 and 2.207 | 1.955 and 2.01 | 676 | > 10000 |  |  |  |  | CC[C@H](CO)Nc1nc(NCCCC2CCCCC2)c2ncn(C(C)C)c2n1 [DS32] | > 10000 | 0 | fold lower affinity than DS11 (CDK12–cyclin K and DDB1; TR-FRET complex formation): ten-fold |
| 1270 | 0.2064 and 0.239 | 0.2251 and 0.2479 | 0.2332 and 0.272 | 0.2704 and 0.303 | 0.3276 and 0.3592 | 0.4277 and 0.464 | 0.5723 and 0.6562 | 0.7875 and 0.9047 | 1.007 and 1.15 | 1.305 and 1.477 | 1.367 and 1.47 | 1270 | > 10000 |  |  |  |  | CC[C@H](CO)Nc1nc(NCCCC2CCCC2)c2ncn(C(C)C)c2n1 [DS33] | > 10000 | 0 |  |

— PMC10746543, “Design principles for cyclin K molecular glue degraders” (Nature Chemical Biology, 2023)
